Experimental data taken from patent publication US6737383B1, “Herbicidal oxadiazolidines” (priority 1999, dated 2004).

How the values were obtained:
sourgrass = assay: Test D sourgrass; type: in vivo, Trichachne insularis; settings: Preemergence, 0 to 100 scale
Description: Seeds, tubers, or plant parts of Alexandergrass (Brachiaria plantaginea), bermuda-grass (Cynodon dactylon), common pursiane (Portulaca oleracea), common ragweed (Ambrosia elatior), common groundsel (Senecio vulgaris), dallisgrass (Paspalum dilatatum), goosegrass (Eleusine indica), guineagrass (Panicum maximum), itchgrass (Rottboellia exaltata), Johnson grass (Sorghum halepense), large crabgrass (Digitaria sanguinalis), pitted morningglory (Ipomoea lacunosa), purple nutsedge (Cyperus rotundus), sandbur (Cenchrus echinatus), sourgrass (Trichachne insularis), Spanishneedles (Bidens bipinnata), surinam grass (Brachiaria decumbens) and tall mallow (Malva sylvestris) were planted into greenhouse pots of flats containing greenhouse planting medium. Plant species were grown in separate pots or individual compartments. Preemergence applications were made within one day of planting the seed or plant part.
Test chemicals were formulated in a non-phytotoxic solvent mixture which included a surfactant and applied preemergence to the surface of the pot containing seeds in a sandy loam soil. Untreated control pots and treated pots were placed in the greenhouse for growth and visually evaluated for injury 14 to 21 days after herbicide application. Plant response ratings, summarized in Table C, are based on a 0 to 100 scale where 0 is no injury and 100 is complete control. A dash (−) response means no test result.

velvetleaf = assay: Test C postemergence velvetleaf; type: in vivo, Abutilon theophrasti; settings: 0 to 100 scale, 0 no effect, 100 complete control
Protocol: Compounds evaluated in this test were formulated in a non-phytotoxic solvent mixture which included a surfactant and applied to plants that were grown for various periods of time before treatment (postemergence application). A mixture of sandy loam soil and greenhouse potting mix in a 60:40 ratio was used for the postemergence test.
Plantings of these crops and weed species were adjusted to produce plants of appropriate size for the postemergence test. All plant species were grown using normal greenhouse practices. Crop and weed species include arrowleaf sida (Sida rhombifolia), barnyardgrass (Echinochloa crus-galli), cocklebur (Xanthium strumarium), common ragweed (Ambrosia elatior), corn (Zea mays), cotton (Gossypium hirsutum), eastern black nightshade (Solanum ptycanthum), fall panicum (Panicum dichotomiflorum), field bindweed (Convolvulus arvensis), giant foxtail (Setaria faberii), hairy beggarticks (Bidens pilosa), ivyleaf morningglory (Ipomoea hederacea), johnsongrass (Sorghum halepense), ladysthumb smartweed (Polygonum persicaria), lambsquarters (Chenopodium album), large crabgrass (Digitaria sanguinalis), purple nutsedge (Cyperus rotundus), redroot pigweed (Amaranthus retroflexus), soybean (Glycine max), surinam grass (Brachiaria decumbens), velvetleaf (Abutilon theophrasti) and wild poinsettia (Euphorbia heterophylla).
Treated plants and untreated controls were maintained in a greenhouse for approximately 14, to 21 days, after which all treated plants were compared to untreated controls and visually evaluated. Plant response ratings, summarized in Table C, were based upon a 0 to 100 scale where 0 was no effect and 100 was complete control. A dash response (−) means no test result.

scentless chamomile = assay: Test E scentless chamomile; type: in vivo, Matricaria inodora; settings: Preemergence
ladysthumb smartweed = assay: Test C postemergence ladysthumb smartweed; type: in vivo, Polygonum persicaria; settings: 0 to 100 scale, 0 no effect, 100 complete control
How it was run: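 Scores (0 = no effect, 100 = complete control) come from visual comparison with untreated controls after about 14–21 days. Spray formulation was a non-phytotoxic solvent mixture including surfactant; plants grew in a 60:40 sandy loam–potting mix blend.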

Green foxtail = assay: Test D green foxtail; type: in vivo; settings: Preemergence, 0 to 100 scale
How it was run: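 Greenhouse pots, sandy loam, single species per pot. Preemergence tests: soil-surface application ≤1 day after planting. Compound formulated in non-phytotoxic solvent with surfactant. Visual rating 14–21 DAT, scale 0–100.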

| SMILES | Plant response rating, Sourgrass (sourgrass; Rate 32 g/ha, 0 no injury, 100 complete control) | Sourgrass plant response rating (sourgrass; Rate 64 g/ha, 0 no injury, 100 complete control) | Sourgrass plant response rating (sourgrass; Rate 125 g/ha, 0 no injury, 100 complete control) | Plant response rating, Sourgrass (sourgrass; Rate 250 g/ha) | Plant response rating, Velvetleaf (velvetleaf; Rate 140 g/ha) | Plant response rating, Velvetleaf (velvetleaf; Rate 280 g/ha) | Plant response rating, Velvetleaf (velvetleaf; Rate 560 g/ha) | Plant response rating, Velvetleaf (velvetleaf; Rate 1120 g/ha) | Plant response rating, Scentless chamo (scentless chamomile; Rate 62 g/ha, 0 to 100 scale, 0 no effect, 100 complete control) | Plant response rating, Scentless chamo (scentless chamomile; Rate 125 g/ha, 0 to 100 scale (0 no effect, 100 complete control)) | Plant response rating, Scentless chamo (scentless chamomile; Rate 250 g/ha, 0 to 100 scale) | Plant response rating Ladysthumb (ladysthumb smartweed; Rate 140 g/ha) | Plant response rating Ladysthumb (ladysthumb smartweed; Rate 560 g/ha) | Plant response rating, Green foxtail (Green foxtail; Rate 250 g/ha) | Plant response rating, Green foxtail (Green foxtail; Rate 500 g/ha) |
| --- | --- | --- | --- | --- | --- | --- | --- | --- | --- | --- | --- | --- | --- | --- | --- |
| Cc1cccc(C)c1-n1c(=O)on(C(=O)N(c2ccc(F)cc2F)C(C)C)c1=O [Compound 28] | 60 | 85 | 100 | 100 | – | – | – | – | – | – | – | – | – | – | – |
| CCn1c(=O)on(C(=O)N(c2ccc(F)cc2F)C(C)C)c1=O [Compound 116] | – | – | – | – | 0 | 0 | 40 | 80 | – | – | – | – | – | – | – |
| CCn1c(=O)on(C(=O)N(c2ccc(F)cc2)C(C)C)c1=O [Compound 107] | – | – | – | – | 5 | 60 | 70 | 75 | 70 | 80 | 90 | 0 | 30 | 100 | 100 |
